Among the data in patent US20060063784A1, “Method of using substituted pyrazolo [1,5-a] pyrimidines” (priority 2004, published 2006) are IC50 values, retold here.

One experiment has as its system 80S14 (p21-deficient) cells. Description: Cytotoxicity assay using isogenic cell lines: IC50 in 80S14 (p21-deficient) cells, SRB. As to conditions: 80S14 (p21-deficient) cells, 5 days, SRB; class symbols; read-out: IC50 for 80S14. Type of experiment: cell-based, human. On the procedure: Cytotoxicity Assay Using Isogenic Cell Lines: • 1. 80S14 (p21-deficient) cells were cultured in RPMI 1640 medium (Gibco/Invitrogen Life technologies) supplemented with 10% fetal bovine serum (FBS, Gibco) and 10 μg/ml gentamycin (Gibco). Cells were maintained at 37° C. under 7% CO2 • 2. Cells were plated at 6×10^4/ml (0.2 ml/well; 12,000 cells/well) in 96-well microtiter plates (Falcon or Corning/Costar) and incubated at 37° C. overnight (18-24 hours). • 3. 2-5 μl of the test agent [200 μg/ml stock in 20% DMSO/20 mM HEPES, pH 7.5 (Gibco)] was added to each well to achieve a final concentration of 2-5 μg/ml. Cells were incubated with the test compounds for 5 days at 37° C. • 4. Surviving cells were fixed with 50 μl 50% trichloroacetic acid (Sigma; 10% final concentration) for 1 hour at 4° C. • 5. Plates were rinsed twice with water (0.3 ml per wash using MRD8 robot), and allowed to dry. • 6. Sulforhodamine B (SRB) (Sigma; 0.4% in 1% acetic acid, 50 μl per well; MRD8 robot) was added and plates kept at room temperature for 10 minutes. • 7. Excess dye was removed by washing with 1% acetic acid (3 times, 0.3 ml per wash; MRD8 robot) and allowed to dry. • 8. The dye was solubilized in Tris base (Sigma; 10 mM, 150 μl per well). Plates were kept at room temperature for 30 minutes to allow the dye to diffuse. • 9. Absorbance was measured at 540 nm. • 10. The percentage of cells surviving drug treatment relative to control wells (no drug) was determined. • 11. The difference in % cell survival between the two cell lines was calculated. • 12. Compounds producing a difference score of >50 were considered to be selective for the p21-deficient cells and were evaluated further: Determination of selectivity of compounds for p21−/− cells: • 1. 80S14 cells were cultured as described above. • 2. Cells were seeded in 96-well microtiter plates at 12,000 cells/well (either 0.15 ml/well of 8×10^4 cells/ml suspension, or 0.2 ml/well of 6×10^4 cells/ml suspension). Plates were incubated at 37° C. overnight (18-24 hours). • 3. Serial dilutions of the test agent were added to each well. Dilutions were prepared either in 40% DMSO/20% methanol/20 mM HEPES, pH 7.5 (Gibco) or directly in growth medium. One of two dose ranges were used: 5 pM to 50 μM or 170 pg/ml to 10 μg/ml. Cells were incubated with the test compounds for 5 days at 37° C. • 4. Surviving cells were fixed with 50 μl 50% trichloroacetic acid (Sigma; 10% final concentration) for 1 hour at 4° C. • 5. Plates were rinsed extensively in water, and allowed to dry. • 6. Sulforhodamine B (Sigma; 0.4% in 1% acetic acid, 70 μl per well) was added and plates kept at room temperature for 10 minutes. • 7. Excess dye was removed by washing 5 times with 1% acetic acid and plates were allowed to dry. • 8. The dye was solubilized in Tris base (Sigma; 10 mM, 150 μl per well). Plates were placed on a titer plate shaker (Lab Line Instruments) for 5 minutes to allow the dye to diffuse. • 9. Absorbance was measured at 560 nm.
10. The drug concentration that inhibits cell proliferation by 50% relative to untreated controls (IC50) was determined from cytotoxicity curves.
Take “3-(3,5-Dimethylphenyl)-7-{3-[2-(2-piperidin-1-ylethyl)-2H-tetrazol-5-yl]phenyl}pyrazolo[1,5-a]pyrimidine [Example 500]”: the IC50 lay in the range of 1 to 10 µM.

Still in this experiment, the particulars now being: 80S14 p21-deficient cells, 5 days incubation, SRB; read-out: IC50 for 80SI4.
Take `N[C@@H](CC1CCCCC1)C(=O)Nc1cccc(-c2ccnc3c(C(=O)c4cccs4)cnn23)c1` [Example 82, 3-cyclohexyl-N-1-[3-[3-(thien-2-ylcarbonyl)pyrazolo[1,5-a]pyrimidin-7-yl]phenyl}-L-alaninamide]: the 50% inhibitory concentration (IC50) is 10 to 50 µM. With `CCCCCNC(=O)NCC(=O)Nc1cccc(-c2ccnc3c(C(=O)c4cccs4)cnn23)c1` [Example 136, N-2-[(pentylamino)carbonyl]-N-1-{3-[3-(thien-2-ylcarbonyl)pyrazolo[1,5-a]pyrimidin-7-yl]phenyl}gylcinamide], the IC50 was in the range of 10 to 50 µM. Still for that read-out and setting: for `CCN(CC)CCC(=O)Nc1cccc(-c2ccnc3c(C(=O)c4cccs4)cnn23)c1` [Example 65, N-3,N-3-diethyl-N-1-{3-[3-(thien-2-ylcarbonyl)pyrazolo[1,5-a]pyrimidin-7-yl]phenyl}-beta-alaninamide] the value was 10 to 50 µM.

Still in this experiment, the particulars now being: Homo sapiens, 80S14, 120 h, read-out: IC50 for 80SI4 (uM).
Take `C=CC(C)OC(=O)Nc1cccc(-c2ccnc3c(C(=O)c4cccs4)cnn23)c1` (centres unmarked) [Example 182, 1-methylprop-2-enyl 3-[3-(thien-2-ylcarbonyl)pyrazolo[1,5-a]pyrimidin-7-yl]phenylcarbamate]: the half-inhibitory concentration (IC50) was below 1 µM.

The experiment is the same for the next values; noted with them: Homo sapiens, 120 h; 80S14 (p21-deficient) cells, 5 days, SRB; class symbols; read-out: IC50 for 80S14.
Regarding `Cc1nn2c(-c3cccc(NC(=O)CC(C)C)c3)ccnc2c1C(=O)c1cccs1` [Example 307, 3-Methyl-N-{3-[2-methyl-3-(2-thienylcarbonyl)pyrazolo[1,5-a]pyrimidin-7-yl]phenyl}butanamide], the IC50 lay in the range of 10 to 50 µM. Consider `COc1ccc(-c2ccnc3c(C(=O)c4cccs4)cnn23)cc1NC(=O)c1ccccc1` [Example 315, N-{2-Methoxy-5-[3-(2-thienylcarbonyl)pyrazolo[1,5-a]pyrimidin-7-yl]phenyl}benzamide], for which the IC50 lay within 1 to 10 µM. Turning to `O=C(c1ccco1)c1cnn2c(-c3cccc(N4CCCCC4=O)c3)ccnc12` [Example 226, 1-[3-[3-(2-Furanylcarbonyl)pyrazolo-[1,5-a]pyrimidin-7-yl]phenyl}-2-piperidinone], the half-maximal inhibitory concentration (IC50) fell in the range of 10 to 50 µM. On to `CC(C)CC(=O)Nc1cccc(-c2ccnc3c(-c4cccs4)cnn23)c1` [Example 333, 3-Methyl-N-[3-(3-thien-2-ylpyrazolo[1,5-a]pyrimidin-7-yl)phenyl]butanamide], for which the IC50 lay within 10 to 50 µM.

In the case of `CN1CCN(Cc2ccc(-c3cccc(-c4ccnc5c(C(=O)c6cccs6)cnn45)c3)cc2)CC1` [Example 460, (7-{4′-[(4-Methylpiperazin-1-yl)methyl]-1,1′-biphenyl-3-yl}pyrazolo[1,5-a]pyrimidin-3-yl)(thien-2-yl)methanone], the IC50 is below 1 µM.

The same experiment, now with this note: Homo sapiens, 120 h; 80S14 p21-deficient cells, 5 days incubation, SRB; read-out: IC50 for 80SI4.
Take `CCCCS(=O)(=O)Nc1cccc(-c2ccnc3c(C(=O)c4cccs4)cnn23)c1` [Example 29, N-{3-[3-(thien-2-ylcarbonyl)pyrazolo[1,5-a]pyrimidin-7-yl]phenyl}butane-1-sulfonamide]: the IC50 is 1 to 10 µM. Turning to `N#CCC(=O)Nc1cccc(-c2ccnc3c(C(=O)c4cccs4)cnn23)c1` [Example 60, 2-cyano-N-{3-[3-(thien-2-ylcarbonyl)pyrazolo[1,5-a]pyrimidin-7-yl]phenyl]acetamide], the IC50 is below 1 µM. Turning to `CC1CC1COC(=O)Nc1cccc(-c2ccnc3c(C(=O)c4cccs4)cnn23)c1` (centres unmarked) [Example 187, (2-methylcyclopropyl)methyl 3-[3-(thien-2-ylcarbonyl)pyrazolo[1,5-a]pyrimidin-7-yl]phenylcarbamate], the IC50 is below 1 µM. On the same count and under the same terms, for `NCCCC(=O)Nc1cccc(-c2ccnc3c(C(=O)c4cccs4)cnn23)c1` [Example 84, 4-amino-N-{3-[3-(thien-2-ylcarbonyl)pyrazolo[1,5-a]pyrimidin-7-yl]phenyl}butanamide] the value was 10 to 50 µM; for `O=C(CC1Cc2ccccc2C1)Nc1cccc(-c2ccnc3c(C(=O)c4cccs4)cnn23)c1` [Example 67, 2-(2,3-dihydro-1H-inden-2-yl)-N-{3-[3-(thien-2-ylcarbonyl)pyrazolo[1,5-a]pyrimidin-7-yl]phenyl}acetamide], below 1 µM. As to `O=C(Nc1cccc(-c2ccnc3c(C(=O)c4cccs4)cnn23)c1)c1ccc(Cl)c(Cl)c1` [Example 100, 3,4-dichloro-N-{3-[3-(thien-2-ylcarbonyl)pyrazolo[1,5-a]pyrimidin-7-yl]phenyl}benzamide], the 50% inhibitory concentration (IC50) lay within 10 to 50 µM. On to `O=C(NC(=O)C(Cl)(Cl)Cl)Nc1cccc(-c2ccnc3c(C(=O)c4cccs4)cnn23)c1` [Example 9, N-{3-[3-(thien-2-ylcarbonyl)pyrazolo[1,5-a]pyrimidin-7-yl]phenyl}-N′-(trichloroacetyl)urea], for which the IC50 was in the range of 1 to 10 µM. For the molecule `O=C(Nc1cccc(-c2ccnc3c(C(=O)c4cccs4)cnn23)c1)OCc1ccccc1` [Example 24, benzyl 3-[3-(thien-2-ylcarbonyl)pyrazolo[1,5-a]pyrimidin-7-yl]phenylcarbamate], the IC50 was below 1 µM. The same measure, in the same setting: for `O=C(c1cccs1)c1cnn2c(-c3cccc(NS(=O)(=O)/C=C/c4ccccc4)c3)ccnc12` [Example 37, (E)-2-phenyl-N-{3-[3-(thien-2-ylcarbonyl)pyrazolo[1,5-a]pyrimidin-7-yl]phenyl}ethenesulfonamide] the value was 10 to 50 µM; for `O=C(Nc1cccc(-c2ccnc3c(C(=O)c4cccs4)cnn23)c1)C(Cl)=C(Cl)Cl` [Example 144, 2,3,3-trichloro-N-{3-[3-(thien-2-ylcarbonyl)pyrazolo[1,5-a]pyrimidin-7-yl]phenyl}acrylamide], below 1 µM.

Consider `CC(CCl)(CCl)C(=O)Nc1cccc(-c2ccnc3c(C(=O)c4cccs4)cnn23)c1` [Example 141, 3-chloro-2-(chloromethyl)-2-methyl-N-{3-[3-(thien-2-ylcarbonyl)pyrazolo[1,5-a]pyrimidin7-yl]phenyl}propanamide], for which the IC50 is below 1 µM.

Consider `O=C(Nc1cccc(-c2ccnc3c(C(=O)c4cccs4)cnn23)c1)c1ccc(Br)cc1` [Example 90, 4-bromo-N-{3-[3-(thien-2-ylcarbonyl)pyrazolo[1,5-a]pyrimidin-7-yl]phenyl}benzamide], for which the IC50 is 1 to 10 µM. As for `C=C(C)C(=O)Nc1cccc(-c2ccnc3c(C(=O)c4cccs4)cnn23)c1` [Example 43, 2-methyl-N-{3-[3-(thien-2-ylcarbonyl)pyrazolo[1,5-a]pyrimidin-7-yl]phenyl}acrylamide], the 50% inhibitory concentration (IC50) is below 1 µM. On the same count and under the same terms, for `CCCCOC(=O)Nc1cccc(-c2c(C)cnc3c(C(=O)c4cccs4)cnn23)c1` [Example 209, butyl 3-[6-methyl-3-(thien-2-ylcarbonyl)pyrazolo[1,5-a]pyrimidin-7-yl]phenylcarbamate] the value was 10 to 50 µM; for `CCCCOC(=O)NCC(=O)Nc1cccc(-c2ccnc3c(C(=O)c4cccs4)cnn23)c1` [Example 116, butyl 2-oxo-2-({3-[3-(thien-2-ylcarbonyl)pyrazolo[1,5-a]pyrimidin-7-yl]phenyl}amino)ethylcarbamate], below 1 µM. Consider `COc1ccc(C(=O)Nc2cccc(-c3ccnc4c(C(=O)c5cccs5)cnn34)c2)cc1OC` [Example 99, 3,4-dimethoxy-N-{3-[3-(thien-2-ylcarbonyl)pyrazolo[1,5-a]pyrimidin-7-yl]phenyl}benzamide], for which the half-maximal inhibitory concentration (IC50) is 1 to 10 µM.

The term IC50 denotes the midpoint of a concentration-inhibition curve.
